# Measurements from US10934274B2, “Quinoline derivatives as TAM RTK inhibitors” (Qurient Co., Ltd., priority 2015, dated 2021).
# Columns and labels:
# [1] = test system: Axl phosphorylation in transiently transfected HEK293T cells; assay: Cellular Axl phosphorylation assay; format: cell-based; conditions: Homo sapiens, HEK-293T; HEK293T cells transfected with Axl, 1 hour compound treatment, Phospho-Axl vs Total-Axl
# Procedure, shortened: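 HEK293T cells transiently transfected with Axl (empty pcDNA_DEST_40 vector as minimum control) were treated with compound in DMSO for 1 h, then lysed. Total and phospho-Axl in lysates were measured by Mesoscale electrochemiluminescence immunoassay. IC50 was taken relative to the DMSO vehicle and empty-vector controls.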
# [2] = biological target: T1, Met (Homo sapiens, UniProt P08581); assay: LanthaScreen Eu kinase binding assay, Met; conditions: Tracer 236, read-out: cMet kinase binding activity (Kd)
# T1 construct: purchased Life Technologies
# T1 sequence (P08581 25-1390): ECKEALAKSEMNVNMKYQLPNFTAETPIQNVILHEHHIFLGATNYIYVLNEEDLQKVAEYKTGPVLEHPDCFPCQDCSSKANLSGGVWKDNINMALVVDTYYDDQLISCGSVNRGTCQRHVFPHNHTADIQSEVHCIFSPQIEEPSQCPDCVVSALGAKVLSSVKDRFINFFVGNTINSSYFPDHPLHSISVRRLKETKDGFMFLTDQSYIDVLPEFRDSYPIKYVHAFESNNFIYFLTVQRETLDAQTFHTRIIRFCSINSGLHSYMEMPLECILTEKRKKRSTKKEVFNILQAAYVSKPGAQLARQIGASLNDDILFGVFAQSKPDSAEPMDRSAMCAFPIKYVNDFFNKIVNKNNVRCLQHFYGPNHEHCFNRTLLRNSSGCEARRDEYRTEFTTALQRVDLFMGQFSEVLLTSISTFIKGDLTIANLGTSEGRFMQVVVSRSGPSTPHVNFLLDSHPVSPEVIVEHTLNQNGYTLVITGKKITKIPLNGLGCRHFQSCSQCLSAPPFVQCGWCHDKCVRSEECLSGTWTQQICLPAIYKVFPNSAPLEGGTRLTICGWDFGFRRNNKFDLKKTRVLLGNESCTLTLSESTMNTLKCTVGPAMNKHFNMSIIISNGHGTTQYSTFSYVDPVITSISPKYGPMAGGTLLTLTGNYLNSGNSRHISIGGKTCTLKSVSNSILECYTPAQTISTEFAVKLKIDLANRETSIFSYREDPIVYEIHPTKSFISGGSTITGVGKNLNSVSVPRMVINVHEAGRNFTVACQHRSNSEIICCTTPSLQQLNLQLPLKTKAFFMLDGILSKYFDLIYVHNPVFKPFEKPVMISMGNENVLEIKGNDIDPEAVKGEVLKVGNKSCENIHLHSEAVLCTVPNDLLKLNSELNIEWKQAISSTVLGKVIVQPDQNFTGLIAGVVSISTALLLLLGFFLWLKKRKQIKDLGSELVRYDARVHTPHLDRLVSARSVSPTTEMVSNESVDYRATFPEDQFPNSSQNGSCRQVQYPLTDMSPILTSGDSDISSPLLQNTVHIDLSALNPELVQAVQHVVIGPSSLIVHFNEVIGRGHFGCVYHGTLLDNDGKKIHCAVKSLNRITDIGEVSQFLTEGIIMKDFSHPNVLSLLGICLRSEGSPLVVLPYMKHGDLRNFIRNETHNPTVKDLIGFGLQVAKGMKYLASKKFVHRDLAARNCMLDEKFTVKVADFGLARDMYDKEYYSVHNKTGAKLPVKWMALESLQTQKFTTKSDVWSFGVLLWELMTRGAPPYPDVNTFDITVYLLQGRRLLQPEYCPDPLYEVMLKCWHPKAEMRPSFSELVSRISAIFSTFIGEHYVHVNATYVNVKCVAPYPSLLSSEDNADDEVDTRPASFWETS
# [3] = biological target: T2, Mer (Homo sapiens, UniProt Q12866); assay: LanthaScreen Eu kinase binding assay, Mer; conditions: Tracer 236
# T2 construct: purchased Life Technologies
# T2 sequence (Q12866 21-999): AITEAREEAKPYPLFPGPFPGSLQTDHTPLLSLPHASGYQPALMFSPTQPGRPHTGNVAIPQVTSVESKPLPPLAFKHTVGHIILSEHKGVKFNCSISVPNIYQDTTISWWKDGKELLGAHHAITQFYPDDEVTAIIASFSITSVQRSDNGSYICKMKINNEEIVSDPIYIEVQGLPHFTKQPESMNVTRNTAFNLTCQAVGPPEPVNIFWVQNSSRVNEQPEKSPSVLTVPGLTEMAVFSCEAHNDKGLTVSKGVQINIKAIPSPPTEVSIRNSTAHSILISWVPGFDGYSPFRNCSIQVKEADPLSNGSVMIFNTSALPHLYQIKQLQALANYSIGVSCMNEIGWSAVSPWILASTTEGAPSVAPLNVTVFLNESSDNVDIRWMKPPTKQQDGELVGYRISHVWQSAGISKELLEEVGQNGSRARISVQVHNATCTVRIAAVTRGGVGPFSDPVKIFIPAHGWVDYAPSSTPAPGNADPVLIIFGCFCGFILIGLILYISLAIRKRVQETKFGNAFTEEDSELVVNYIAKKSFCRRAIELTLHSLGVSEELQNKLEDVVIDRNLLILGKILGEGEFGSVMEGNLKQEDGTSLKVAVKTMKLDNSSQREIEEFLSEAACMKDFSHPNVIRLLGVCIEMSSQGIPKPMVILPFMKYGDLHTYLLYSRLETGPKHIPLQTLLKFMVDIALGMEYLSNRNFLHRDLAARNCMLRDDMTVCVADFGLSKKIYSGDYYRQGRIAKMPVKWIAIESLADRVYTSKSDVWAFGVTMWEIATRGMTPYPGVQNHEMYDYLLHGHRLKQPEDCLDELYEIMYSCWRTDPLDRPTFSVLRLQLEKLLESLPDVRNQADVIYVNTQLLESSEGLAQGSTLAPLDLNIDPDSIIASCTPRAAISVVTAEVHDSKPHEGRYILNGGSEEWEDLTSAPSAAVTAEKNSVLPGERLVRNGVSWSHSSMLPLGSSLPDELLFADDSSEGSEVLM
Kd [2],Kd [3],Compound,IC50 [1]
100 to 1000 nM,100 to 1000 nM,CCOc1cnn(-c2cccs2)c1C(=O)Nc1ccc(Oc2ccnc3cc(OC)c(OC)cc23)cn1 [Compound 20],< 100 nM
100 to 1000 nM,100 to 1000 nM,CCOc1cnn(-c2ccsc2)c1C(=O)Nc1ccc(Oc2ccnc3cc(OC)c(OC)cc23)cn1 [Compound 21],< 100 nM
100 to 1000 nM,< 100 nM,CCOc1cn(CC)nc1C(=O)Nc1ccc(Oc2ccnc3cc(OC)c(OC)cc23)cn1 [Compound 27],< 100 nM
100 to 1000 nM,< 100 nM,CCOc1cn(C)nc1C(=O)Nc1ccc(Oc2ccnc3cc(OC)c(OC)cc23)cn1 [Compound 29],100 to 1000 nM
100 to 1000 nM,100 to 1000 nM,CCOc1cnn(C)c1C(=O)Nc1ccc(Oc2ccnc3cc(OC)c(OC)cc23)cn1 [Compound 30],< 100 nM
100 to 1000 nM,100 to 1000 nM,CCOc1cnn(-c2ccco2)c1C(=O)Nc1ccc(Oc2ccnc3cc(OC)c(OC)cc23)cn1 [Compound 58],< 100 nM
100 to 1000 nM,100 to 1000 nM,CCOc1cn(C2CCN(C)C2)nc1C(=O)Nc1ccc(Oc2ccnc3cc(OC)c(OC)cc23)cc1F (stereo not drawn) [Compound 212],< 100 nM
≥ 1000 nM,100 to 1000 nM,CCOc1cnn(C2CCCN(C)C2)c1C(=O)Nc1ccc(Oc2ccnc3cc(OC)c(OC)cc23)cc1F (stereo not drawn) [Compound 213],100 to 1000 nM
< 100 nM,< 100 nM,CCOc1cn(Cc2cnccn2)nc1C(=O)Nc1ccc(Oc2ccnc3cc(OC)c(OC)cc23)cc1F [Compound 215],< 100 nM
100 to 1000 nM,< 100 nM,CCOc1cn(C2CCCN(C(C)=O)C2)nc1C(=O)Nc1ccc(Oc2ccnc3cc(OC)c(OC)cc23)cc1F (stereo not drawn) [Compound 224],< 100 nM
100 to 1000 nM,< 100 nM,CCOc1cn(C2CCCN(C(N)=O)C2)nc1C(=O)Nc1ccc(Oc2ccnc3cc(OC)c(OC)cc23)cc1F (stereo not drawn) [Compound 225],100 to 1000 nM
< 100 nM,< 100 nM,CCOc1cn(Cc2cnccc2C)nc1C(=O)Nc1ccc(Oc2ccnc3cc(OC)c(OC)cc23)cc1F [Compound 226],< 100 nM
< 100 nM,< 100 nM,CCOc1cn(-c2cnccc2C(C)(O)CO)nc1C(=O)Nc1ccc(Oc2ccnc3cc(OC)c(OC)cc23)cc1F (stereo not drawn) [Compound 227],< 100 nM
< 100 nM,< 100 nM,CCOc1cn(-c2nccnc2C(C)(O)CO)nc1C(=O)Nc1ccc(Oc2ccnc3cc(OC)c(OC)cc23)cc1F (stereo not drawn) [Compound 229],< 100 nM
≥ 1000 nM,< 100 nM,CCOc1cn(-c2cnc(N)nc2)nc1C(=O)Nc1ccc(Oc2ccnc3cc(OC(C)C)c(OC)cc23)cc1F [Compound 230],< 100 nM

# Further lines, the compound ahead of its results:
Compound,Kd [2],Kd [3],IC50 [1]
CCOc1cn(-c2ccc(OC)cc2)nc1C(=O)Nc1ccc(Oc2ccnc3cc(OC)c(OC)cc23)cn1 [Compound 1],< 100 nM,< 100 nM,< 100 nM
CCOc1cn(-c2cccs2)nc1C(=O)Nc1ccc(Oc2ccnc3cc(OC)c(OC)cc23)cn1 [Compound 17],< 100 nM,< 100 nM,< 100 nM
CCOc1cn(-c2ccsc2)nc1C(=O)Nc1ccc(Oc2ccnc3cc(OC)c(OC)cc23)cn1 [Compound 18],100 to 1000 nM,< 100 nM,< 100 nM
CCOc1cn(-c2cccnc2Cl)nc1C(=O)Nc1ccc(Oc2ccnc3cc(OC)c(OC)cc23)cn1 [Compound 19],< 100 nM,< 100 nM,< 100 nM
CCOc1cn(-c2cccnc2C)nc1C(=O)Nc1ccc(Oc2ccnc3cc(OC)c(OC)cc23)cn1 [Compound 23],< 100 nM,< 100 nM,< 100 nM
CCOc1cn(-c2ccncc2Cl)nc1C(=O)Nc1ccc(Oc2ccnc3cc(OC)c(OC)cc23)cn1 [Compound 26],< 100 nM,< 100 nM,< 100 nM
CCOc1cn(-c2ccc(N(C)C)cc2Cl)nc1C(=O)Nc1ccc(Oc2ccnc3cc(OC)c(OC)cc23)cn1 [Compound 31],100 to 1000 nM,< 100 nM,< 100 nM
CCOc1cn(-c2cc[nH]c2)nc1C(=O)Nc1ccc(Oc2ccnc3cc(OC)c(OC)cc23)cn1 [Compound 32],100 to 1000 nM,< 100 nM,< 100 nM
CCOc1cn(-c2ccoc2)nc1C(=O)Nc1ccc(Oc2ccnc3cc(OC)c(OC)cc23)cn1 [Compound 33],< 100 nM,< 100 nM,< 100 nM
CCOc1cn(-c2ccncc2C)nc1C(=O)Nc1ccc(Oc2ccnc3cc(OC)c(OC)cc23)cn1 [Compound 34],< 100 nM,< 100 nM,< 100 nM
CCOc1cn(-c2cnccn2)nc1C(=O)Nc1ccc(Oc2ccnc3cc(OC)c(OC)cc23)cn1 [Compound 36],< 100 nM,< 100 nM,< 100 nM
CCOc1cn(CCn2cccn2)nc1C(=O)Nc1ccc(Oc2ccnc3cc(OC)c(OC)cc23)cn1 [Compound 37],100 to 1000 nM,< 100 nM,100 to 1000 nM
CCOc1cn(-c2cnsc2)nc1C(=O)Nc1ccc(Oc2ccnc3cc(OC)c(OC)cc23)cn1 [Compound 39],< 100 nM,< 100 nM,< 100 nM
CCOc1cn(-c2ccnnc2)nc1C(=O)Nc1ccc(Oc2ccnc3cc(OC)c(OC)cc23)cn1 [Compound 40],< 100 nM,< 100 nM,100 to 1000 nM
CCOc1cn(-c2ccc(C#N)cn2)nc1C(=O)Nc1ccc(Oc2ccnc3cc(OC)c(OC)cc23)cn1 [Compound 43],≥ 1000 nM,≥ 1000 nM,≥ 1000 nM
CCOc1oc(-c2cccnc2)nc1C(=O)Nc1ccc(Oc2ccnc3cc(OC)c(OC)cc23)cn1 [Compound 44],< 100 nM,< 100 nM,< 100 nM
CCOc1sc(-c2cccnc2)nc1C(=O)Nc1ccc(Oc2ccnc3cc(OC)c(OC)cc23)cn1 [Compound 45],< 100 nM,< 100 nM,< 100 nM
CCOc1cn(CC2CCO2)nc1C(=O)Nc1ccc(Oc2ccnc3cc(OC)c(OC)cc23)cn1 (stereo not drawn) [Compound 48],100 to 1000 nM,< 100 nM,< 100 nM
CCOc1cn(-c2cnc(C#N)nc2)nc1C(=O)Nc1ccc(Oc2ccnc3cc(OC)c(OC)cc23)cn1 [Compound 55],100 to 1000 nM,100 to 1000 nM,< 100 nM
CCOc1cn(-c2ccn(C)c2)nc1C(=O)Nc1ccc(Oc2ccnc3cc(OC)c(OC)cc23)cn1 [Compound 56],< 100 nM,< 100 nM,< 100 nM
CCOc1cn(-c2ccco2)nc1C(=O)Nc1ccc(Oc2ccnc3cc(OC)c(OC)cc23)cn1 [Compound 57],< 100 nM,< 100 nM,< 100 nM
CCOc1cn(-c2ncco2)nc1C(=O)Nc1ccc(Oc2ccnc3cc(OC)c(OC)cc23)cn1 [Compound 59],< 100 nM,< 100 nM,< 100 nM
CCOc1cn(-c2cnccc2CCCN(C)C)nc1C(=O)Nc1ccc(Oc2ccnc3cc(OC)c(OC)cc23)cn1 [Compound 61],< 100 nM,< 100 nM,< 100 nM
CCOc1cn(CCOC)nc1C(=O)Nc1ccc(Oc2ccnc3cc(OC)c(OC)cc23)cn1 [Compound 64],< 100 nM,< 100 nM,< 100 nM
CCOc1cn(-c2cnccc2CCN(C)C)nc1C(=O)Nc1ccc(Oc2ccnc3cc(OC)c(OC)cc23)cn1 [Compound 65],< 100 nM,< 100 nM,< 100 nM
CCOc1cn(CC(C)=O)nc1C(=O)Nc1ccc(Oc2ccnc3cc(OC)c(OC)cc23)cn1 [Compound 66],100 to 1000 nM,< 100 nM,< 100 nM
CCOc1cn(C(C)(C)C(=O)NC)nc1C(=O)Nc1ccc(Oc2ccnc3cc(OC)c(OC)cc23)cn1 [Compound 68],100 to 1000 nM,< 100 nM,< 100 nM
CCOc1cn(-c2cnccc2CN(C)C)nc1C(=O)Nc1ccc(Oc2ccnc3cc(OC)c(OC)cc23)cn1 [Compound 73],100 to 1000 nM,< 100 nM,< 100 nM
CCOc1cn(-c2cnccc2CO)nc1C(=O)Nc1ccc(Oc2ccnc3cc(OC(C)C)c(OC)cc23)cc1F [Compound 231],100 to 1000 nM,< 100 nM,< 100 nM
